These results are taken from the supplement of paper PMC11208160.
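Also: IS621 bridge recombinase in Escherichia coli cells against a fixed T5 target plasmid.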

This data set is described as follows: recombinant UMI read abundance after kanamycin selection (control-corrected) (log10(CPM+1)); higher = more efficient recombination; extreme values may be limits of the assay; sequences stand for … in AGTGCAGAGAAAATCGGCCAGTTTTCTCTGCCTGCAGTCCGCATGCCGTGGGACCCCTTGGGTTCTAACCTGTTGCCTAGATTTATGCAGCGGACTGCCTTTCTCCCAAAGTGATAAACCGG…AGGTTGGTTTCACT; site = the 11-nt donor. In a few lines:
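The measure is log10(CPM+1) for recombinant UMIs. These were PCR-amplified across the donor–target junction and sequenced after Escherichia coli carrying a donor and donor-binding-loop pair library and a target plasmid with T7-inducible IS621 bridge recombinase was plated on IPTG (0.07 mM) plus kanamycin or unselected. CPM were averaged over two replicates and scaled by control-derived factors.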
“CAGAACCCATGGACCGGTTTTCCCGGTAATCCGTATTTGCC (site CAGAACCCTGG)”: the “recombinant UMI read abundance (log10)” value is 0.
On to “CAGAATCCATGGACCGGTTTTCCCGGTAATCCGTATTTGAT (site CAGAATCCTAT)”, for which the “recombinant UMI read abundance (log10)” value worked out at 1.84.
Then “CAGAATCCATGGACCGGTTTTCCCGGTAATCCGTATTTGAT (site CGGAATCCTAA)”, with 0.
The result for “CAGAATCCATGGACCGGTTTTCCCGGTAATCCGTATTTGTT (site CAGAATCCTAA)” reads 2.07; that for “CAGAATCCATGGACCGGTTTTCCCGGTAATCCGTATTTGTT (site CCGAATCCTAA)”, 0.
As for “CAGAATCCATGGACCGGTTTTCCCGGTAATCCGTATTTGTT (site CGGAATCCTAA)”, the “recombinant UMI read abundance (log10)” value was determined as 0.0121.
Then “CAGAATCCATGGACCGGTTTTCCCGGTAATCCGTATTTGTT (site CTGAATCCTAA)”, with 0; and “CAGAGGCCATGGACCGGTTTTCCCGGTAATCCGTATTTGCT (site CAGAGGCCTAG)”, with 1.68; and “CAGAGTCCATGGACCGGTTTTCCCGGTAATCCGTATTTGCC (site CAGAGTCCTGG)”, with 1.8.
The result for “CAGAGTCCATGGACCGGTTTTCCCGGTAATCCGTATTTGTT (site CAGAGTCCTAA)” reads 1.92.
On to “CAGAGTCCATGGACCGGTTTTCCCGGTAATCCGTATTTGTT (site CGGAATCCTAA)”, for which the “recombinant UMI read abundance (log10)” value was determined as 0.
Then “CAGATAACATGGACCGGTTTTCCCGGTAATCCGTATTTGGG (site CAGATAACTCC)”, with 1.1; and “CAGCAACCATGGACCGGTTTTCCCGGTAATCCGTATTTGCA (site CAGCAACCTTG)”, with 0; and “CAGCAATCATGGACCGGTTTTCCCGGTAATCCGTATTTGGT (site CAGCAATCTAC)”, with 2.73.
Turning to “CAGCCTTCATGGACCGGTTTTCCCGGTAATCCGTATTTGGT (site AAGCCTTCTAC)”, the “recombinant UMI read abundance (log10)” value is 0.
Take “CAGCCTTCATGGACCGGTTTTCCCGGTAATCCGTATTTGGT (site CAGCCTTCTAC)”: the “recombinant UMI read abundance (log10)” value amounted to 0.949.
The result for “CAGCCTTCATGGACCGGTTTTCCCGGTAATCCGTATTTGGT (site GAGCCTTCTAC)” reads 0.00376; that for “CAGCCTTCATGGACCGGTTTTCCCGGTAATCCGTATTTGGT (site TAGCCTTCTAC)”, 0.0206.
The result for “CAGCCTTCATGGACCGGTTTTCCCGGTAATCCGTATTTGTG (site CAGCCTTCTCA)” reads 0.108; that for “CAGCGTGCATGGACCGGTTTTCCCGGTAATCCGTATTTGCT (site CAGCGTGCTAG)”, 2.76; that for “CAGCTAGCATGGACCGGTTTTCCCGGTAATCCGTATTTGAA (site AAGCTAGCTTT)”, 0.0151.
Then “CAGCTAGCATGGACCGGTTTTCCCGGTAATCCGTATTTGAA (site CAGCTAGCTTT)”, with 2.54.
On to “CAGCTAGCATGGACCGGTTTTCCCGGTAATCCGTATTTGAA (site GAGCTAGCTTT)”, for which the “recombinant UMI read abundance (log10)” value turned out to be 0.0499.
For “CAGCTAGCATGGACCGGTTTTCCCGGTAATCCGTATTTGAA (site TAGCTAGCTTT)”, the “recombinant UMI read abundance (log10)” value turned out to be 0.596.
“CAGGCAACATGGACCGGTTTTCCCGGTAATCCGTATTTGTG (site CAGGCAACTCA)”: the “recombinant UMI read abundance (log10)” value came out at 0.912.
Take “CAGGCGCCATGGACCGGTTTTCCCGGTAATCCGTATTTGTG (site CAAGCGCCTCA)”: the “recombinant UMI read abundance (log10)” value was found to be 0.0213.
Regarding “CAGGCGCCATGGACCGGTTTTCCCGGTAATCCGTATTTGTG (site CACGCGCCTCA)”, the “recombinant UMI read abundance (log10)” value was 0.
Turning to “CAGGCGCCATGGACCGGTTTTCCCGGTAATCCGTATTTGTG (site CAGGCGCCTCA)”, the “recombinant UMI read abundance (log10)” value amounted to 0.428.
The result for “CAGGCGCCATGGACCGGTTTTCCCGGTAATCCGTATTTGTG (site CATGCGCCTCA)” reads 0.0319; that for “CAGGGCCCATGGACCGGTTTTCCCGGTAATCCGTATTTGCA (site CAGGGCCCTTG)”, 1.24; that for “CAGGGCCCATGGACCGGTTTTCCCGGTAATCCGTATTTGTT (site CAAGGCCCTAA)”, 0.
Consider “CAGGGCCCATGGACCGGTTTTCCCGGTAATCCGTATTTGTT (site CACGGCCCTAA)”, for which the “recombinant UMI read abundance (log10)” value was 0.025.
The result for “CAGGGCCCATGGACCGGTTTTCCCGGTAATCCGTATTTGTT (site CAGGGCCCTAA)” reads 0.381; that for “CAGGGCCCATGGACCGGTTTTCCCGGTAATCCGTATTTGTT (site CATGGCCCTAA)”, 0.00426; that for “CAGGGCTCATGGACCGGTTTTCCCGGTAATCCGTATTTGTT (site CAGGGCTCTAA)”, 2.71.
Turning to “CAGGTTCCATGGACCGGTTTTCCCGGTAATCCGTATTTGAA (site CAGGTTCCTTT)”, the “recombinant UMI read abundance (log10)” value amounted to 1.98.
Consider “CAGGTTGCATGGACCGGTTTTCCCGGTAATCCGTATTTGGC (site CAGGTTGCTGC)”, for which the “recombinant UMI read abundance (log10)” value was determined as 2.08.
The result for “CAGTAAGCATGGACCGGTTTTCCCGGTAATCCGTATTTGTG (site CAGTAAGCTCA)” reads 2.41; that for “CAGTCCACATGGACCGGTTTTCCCGGTAATCCGTATTTGGG (site CAGTCAACTCC)”, 0.00382.
The result for “CAGTCCACATGGACCGGTTTTCCCGGTAATCCGTATTTGGG (site CAGTCCACTCC)” reads 0.00714; that for “CAGTCCACATGGACCGGTTTTCCCGGTAATCCGTATTTGGG (site CAGTCGACTCC)”, 0.024.
The result for “CAGTCCACATGGACCGGTTTTCCCGGTAATCCGTATTTGGG (site CAGTCTACTCC)” reads 0.
As for “CAGTCCGCATGGACCGGTTTTCCCGGTAATCCGTATTTGCT (site CAGTCCGCTAG)”, the “recombinant UMI read abundance (log10)” value is 2.64.
The result for “CAGTCCTCATGGACCGGTTTTCCCGGTAATCCGTATTTGCC (site CAATCCTCTGG)” reads 2.78; that for “CAGTCCTCATGGACCGGTTTTCCCGGTAATCCGTATTTGCC (site CACTCCTCTGG)”, 2.05.
Take “CAGTCCTCATGGACCGGTTTTCCCGGTAATCCGTATTTGCC (site CAGTCCTCTGG)”: the “recombinant UMI read abundance (log10)” value was 2.38.
With “CAGTCCTCATGGACCGGTTTTCCCGGTAATCCGTATTTGCC (site CATTCCTCTGG)”, the “recombinant UMI read abundance (log10)” value amounted to 0.879.
On to “CAGTCGACATGGACCGGTTTTCCCGGTAATCCGTATTTGTG (site CAGTCGACTCA)”, for which the “recombinant UMI read abundance (log10)” value amounted to 0.661.
Then “CAGTCGACATGGACCGGTTTTCCCGGTAATCCGTATTTGTG (site CAGTCGACTCC)”, with 0.022; and “CAGTCGACATGGACCGGTTTTCCCGGTAATCCGTATTTGTG (site CAGTCGACTCG)”, with 0.00379.
As for “CAGTCGACATGGACCGGTTTTCCCGGTAATCCGTATTTGTG (site CAGTCGACTCT)”, the “recombinant UMI read abundance (log10)” value was determined as 0.00896.
On to “CAGTCGTCATGGACCGGTTTTCCCGGTAATCCGTATTTGGG (site CAGTCGACTCC)”, for which the “recombinant UMI read abundance (log10)” value was found to be 0.00913.
